Experimental data from patent US20260209193A1, “NOVEL INHIBITORS OF DNA DAMAGE RESPONSES FOR CANCER THERAPY” (The Regents of the University of California, priority 2022, published 2026).

Legend:
ATR = target: T1, ATR (Homo sapiens, UniProt Q13535); test: ATR-mediated signaling: phosphorylation of Rad17 Ser 645 and CHK1 Ser 345 in cells; assay type: cell-based; conditions: for ATR inhibition potency relative to JC099 (OLA- or UV-induced phosphorylation of Rad17 and CHK1): compared to JC099
T1 construct: endogenous in cells; host or cells: PC3, C4-2B/MR, SUM149PT-BRCA1rev, UWB1.289+BRCA1, MDA-MB-231
Protocol: PARP inhibitor-resistant cells are increasingly dependent on ATR for survival, and ATR inhibition disrupts restored HR and fork protection pathways in PARP inhibitor resistant BRCA-deficient cancer cells. For ATR kinase in vitro assays, ATR was immunoprecipitated with 3 μg of anti-ATR antibody (Bethyl Laboratories, A300-137A) from 1 mg of cell lysate. […] The IC50 was determined by the enzyme profiling service of Eurofins Cerep (France). […] The phosphorylation of CHK1 at Ser 345 sites was used as a bio-marker of ATR-mediated signaling pathway. The phosphorylation of Rad17 at Ser 645, which is a substrate of ATR, was also examined.
ATR inhibition was assessed in C4-2B/MR cells. Considering ATM is a homologous protein of ATR, we also detected the effect of JC046 analogs on the phosphorylation of KAP1 at Ser 824 and CHK2 at Thr 68 sites, which were used as markers of ATM signaling pathway.

PARP1 = target: T2, PARP1 (Homo sapiens, UniProt P09874); test: PARP1 trapping, chromatin fractionation (chromatin-bound fraction); assay type: cell-based
T2 construct: endogenous in cells; host or cells: PC3
From the text: The trapped PARP1 forms a toxic lesion and stalls the progress of replication forks. The replication fork collapses in BRCA1/2-deficient cancer cells, and then results in cell death. […] Six cancer cell lines were used in this assay, including two breast cancer cell lines, BRCA1-mutunt SUM149PT-BRCA1mut and SUM149PT-BRCA1rev where deleterious BRCA1 mutation is reverted to form a functional BRCA1, two ovarian cancer cell lines, BRCA1-null UWB1.289 and UWB1.289+BRCA1, a stable cell line in which wild-type BRCA1 function has been restored, and two prostate cancer cell lines, enzalutamide resistant C4-2B/MR which is homologous recombination (HR)-deficient due to Rad51 mutation, and enzalutamide insensitive PC3 which is HR-proficient.

[1] = 1 μM and 2 μM, PC3 and MDA-MB-231 cells

T1 sequence (Q13535 whole entry): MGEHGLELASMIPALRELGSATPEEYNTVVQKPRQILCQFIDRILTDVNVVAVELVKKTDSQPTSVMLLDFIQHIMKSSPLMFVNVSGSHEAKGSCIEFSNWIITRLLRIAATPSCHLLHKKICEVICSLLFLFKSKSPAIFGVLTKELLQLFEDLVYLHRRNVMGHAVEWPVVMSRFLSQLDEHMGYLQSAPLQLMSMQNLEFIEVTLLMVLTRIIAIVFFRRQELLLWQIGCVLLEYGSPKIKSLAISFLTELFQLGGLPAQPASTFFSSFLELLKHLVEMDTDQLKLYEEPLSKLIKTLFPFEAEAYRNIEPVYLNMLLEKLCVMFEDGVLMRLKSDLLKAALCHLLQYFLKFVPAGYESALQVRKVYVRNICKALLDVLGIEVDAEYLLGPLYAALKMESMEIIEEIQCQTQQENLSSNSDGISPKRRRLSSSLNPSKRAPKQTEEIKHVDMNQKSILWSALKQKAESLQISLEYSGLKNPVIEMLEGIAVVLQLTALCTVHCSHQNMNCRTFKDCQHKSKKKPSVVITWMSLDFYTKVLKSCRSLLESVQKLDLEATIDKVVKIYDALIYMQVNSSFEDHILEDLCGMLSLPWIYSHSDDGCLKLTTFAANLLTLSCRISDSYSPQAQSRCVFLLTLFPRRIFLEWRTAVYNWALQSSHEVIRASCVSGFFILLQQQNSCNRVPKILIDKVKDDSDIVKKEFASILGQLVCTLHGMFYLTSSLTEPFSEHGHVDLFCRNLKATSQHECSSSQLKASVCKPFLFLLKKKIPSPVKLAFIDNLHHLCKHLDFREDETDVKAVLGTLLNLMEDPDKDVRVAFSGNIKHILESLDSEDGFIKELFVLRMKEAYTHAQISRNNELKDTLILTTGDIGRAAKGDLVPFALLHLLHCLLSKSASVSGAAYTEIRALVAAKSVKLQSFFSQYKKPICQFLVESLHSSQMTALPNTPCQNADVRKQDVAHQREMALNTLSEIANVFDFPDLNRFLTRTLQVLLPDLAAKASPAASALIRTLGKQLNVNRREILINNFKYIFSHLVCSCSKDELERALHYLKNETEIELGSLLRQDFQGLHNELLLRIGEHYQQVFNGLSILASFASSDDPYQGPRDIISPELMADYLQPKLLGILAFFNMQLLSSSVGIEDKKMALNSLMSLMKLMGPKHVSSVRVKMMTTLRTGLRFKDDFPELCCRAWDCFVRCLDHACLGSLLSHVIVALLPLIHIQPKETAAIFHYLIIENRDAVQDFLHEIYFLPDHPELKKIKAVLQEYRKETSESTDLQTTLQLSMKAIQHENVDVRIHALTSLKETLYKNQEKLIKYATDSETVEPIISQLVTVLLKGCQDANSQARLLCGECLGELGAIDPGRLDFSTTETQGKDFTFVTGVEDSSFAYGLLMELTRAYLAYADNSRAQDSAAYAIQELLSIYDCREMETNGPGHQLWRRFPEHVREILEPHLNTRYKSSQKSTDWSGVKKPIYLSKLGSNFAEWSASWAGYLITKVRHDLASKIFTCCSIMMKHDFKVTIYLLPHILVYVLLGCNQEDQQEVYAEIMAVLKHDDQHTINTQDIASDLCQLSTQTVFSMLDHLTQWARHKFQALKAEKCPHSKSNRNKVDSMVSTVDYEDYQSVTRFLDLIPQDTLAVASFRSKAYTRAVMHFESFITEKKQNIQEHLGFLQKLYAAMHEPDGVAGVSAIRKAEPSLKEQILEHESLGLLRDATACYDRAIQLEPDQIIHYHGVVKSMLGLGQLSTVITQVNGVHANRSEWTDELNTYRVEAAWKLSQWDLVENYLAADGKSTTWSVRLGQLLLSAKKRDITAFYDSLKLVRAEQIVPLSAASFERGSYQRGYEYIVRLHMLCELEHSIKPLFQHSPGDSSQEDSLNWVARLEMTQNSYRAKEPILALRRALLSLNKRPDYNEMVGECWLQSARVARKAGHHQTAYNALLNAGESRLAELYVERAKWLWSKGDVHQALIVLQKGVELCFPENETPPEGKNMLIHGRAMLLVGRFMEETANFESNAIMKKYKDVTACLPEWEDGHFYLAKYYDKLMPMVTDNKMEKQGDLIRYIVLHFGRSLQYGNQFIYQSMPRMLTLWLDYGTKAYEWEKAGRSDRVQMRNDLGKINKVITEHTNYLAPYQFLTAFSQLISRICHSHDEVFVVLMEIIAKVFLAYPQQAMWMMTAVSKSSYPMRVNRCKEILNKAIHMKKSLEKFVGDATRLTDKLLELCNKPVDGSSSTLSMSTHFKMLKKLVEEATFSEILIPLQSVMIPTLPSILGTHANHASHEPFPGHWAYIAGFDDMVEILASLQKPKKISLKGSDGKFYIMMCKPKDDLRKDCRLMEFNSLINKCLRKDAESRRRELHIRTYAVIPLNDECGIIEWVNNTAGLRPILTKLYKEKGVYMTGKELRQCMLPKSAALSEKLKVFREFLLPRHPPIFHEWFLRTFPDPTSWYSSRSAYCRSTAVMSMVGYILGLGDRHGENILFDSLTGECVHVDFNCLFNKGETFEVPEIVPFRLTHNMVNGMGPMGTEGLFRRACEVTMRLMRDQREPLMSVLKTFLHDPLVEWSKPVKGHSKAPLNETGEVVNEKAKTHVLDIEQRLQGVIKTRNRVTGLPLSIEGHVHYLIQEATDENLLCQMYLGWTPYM
T1 sequence (Q8WXE1 whole entry partner): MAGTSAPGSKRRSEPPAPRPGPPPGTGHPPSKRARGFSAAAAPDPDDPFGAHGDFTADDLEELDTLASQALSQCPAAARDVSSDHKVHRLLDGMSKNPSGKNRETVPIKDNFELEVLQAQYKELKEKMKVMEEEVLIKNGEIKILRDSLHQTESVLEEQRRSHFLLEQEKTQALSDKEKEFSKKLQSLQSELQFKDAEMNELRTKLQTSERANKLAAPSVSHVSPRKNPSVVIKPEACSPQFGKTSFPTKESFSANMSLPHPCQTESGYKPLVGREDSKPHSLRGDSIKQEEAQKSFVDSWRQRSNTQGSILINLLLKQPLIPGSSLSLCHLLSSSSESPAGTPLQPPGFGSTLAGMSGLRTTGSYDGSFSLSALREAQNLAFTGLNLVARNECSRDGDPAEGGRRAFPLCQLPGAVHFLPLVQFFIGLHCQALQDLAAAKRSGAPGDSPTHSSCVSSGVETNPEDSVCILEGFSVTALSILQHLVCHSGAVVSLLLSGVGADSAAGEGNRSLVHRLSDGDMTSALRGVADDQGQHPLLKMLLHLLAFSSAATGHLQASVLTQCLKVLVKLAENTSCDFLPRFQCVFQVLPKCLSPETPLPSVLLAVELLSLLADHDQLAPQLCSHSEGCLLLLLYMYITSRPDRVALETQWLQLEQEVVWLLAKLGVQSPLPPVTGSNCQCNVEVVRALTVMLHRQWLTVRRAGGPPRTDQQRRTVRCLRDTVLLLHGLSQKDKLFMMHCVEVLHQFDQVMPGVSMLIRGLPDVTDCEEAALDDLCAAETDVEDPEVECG
T2 sequence (P09874 whole entry, species assumed): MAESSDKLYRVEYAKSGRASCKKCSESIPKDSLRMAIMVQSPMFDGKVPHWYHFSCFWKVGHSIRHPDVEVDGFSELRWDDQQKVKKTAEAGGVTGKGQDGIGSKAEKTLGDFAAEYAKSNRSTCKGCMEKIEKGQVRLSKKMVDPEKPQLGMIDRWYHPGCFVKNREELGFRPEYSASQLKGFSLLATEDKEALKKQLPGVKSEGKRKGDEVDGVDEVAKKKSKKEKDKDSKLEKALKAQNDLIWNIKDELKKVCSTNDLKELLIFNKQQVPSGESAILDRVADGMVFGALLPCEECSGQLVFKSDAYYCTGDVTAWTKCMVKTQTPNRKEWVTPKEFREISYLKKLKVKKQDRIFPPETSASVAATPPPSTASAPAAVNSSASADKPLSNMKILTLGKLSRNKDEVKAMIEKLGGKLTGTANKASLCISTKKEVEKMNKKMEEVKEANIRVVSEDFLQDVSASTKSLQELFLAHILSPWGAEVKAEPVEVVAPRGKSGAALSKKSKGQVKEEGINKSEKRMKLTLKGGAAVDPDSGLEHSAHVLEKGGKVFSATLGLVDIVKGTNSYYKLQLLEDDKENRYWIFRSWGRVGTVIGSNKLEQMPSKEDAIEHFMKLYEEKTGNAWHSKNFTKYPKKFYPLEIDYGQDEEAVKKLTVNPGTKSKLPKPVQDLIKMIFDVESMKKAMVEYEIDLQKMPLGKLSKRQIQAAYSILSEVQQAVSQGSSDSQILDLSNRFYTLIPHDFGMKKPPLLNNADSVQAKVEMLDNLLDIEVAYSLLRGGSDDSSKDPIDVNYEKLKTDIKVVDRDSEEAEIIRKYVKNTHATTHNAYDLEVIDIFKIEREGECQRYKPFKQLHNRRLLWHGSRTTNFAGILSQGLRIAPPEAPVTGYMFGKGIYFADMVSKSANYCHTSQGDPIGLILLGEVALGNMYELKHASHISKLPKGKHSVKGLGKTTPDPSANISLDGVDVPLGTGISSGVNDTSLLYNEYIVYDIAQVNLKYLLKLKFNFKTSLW

Compound	ATR inhibition potency relative to JC099 (OLA- or UV-induced phosphorylation of Rad17 and CHK1) (ATR)	PARP1-trapping potency relative to JC099 (PARP1 in the chromatin-bound fraction) (PARP1; PC3 cells)	other results
CCN(CC)C(=O)Nc1ccc(C(=O)NC2C/C(=C\c3ccc(F)c(F)c3)C(=O)/C(=C/c3ccc(F)c(F)c3)C2)cc1 (centres unmarked) [JCS059, N-(3,5-bis((E)-3,4-difluorobenzylidene)-4-oxocyclohexyl)-4-(3,3-diethylureido)benzamide]			Olaparib induced phosphorylation of Rad17 at Ser 645 and CHK1 at Ser 345 (ATR; 1 μM and 2 μM, PC3 cells): inhibited; PARP1 trapped on DNA lesions (PARP1; 0.3 μM, PC3 cells): trapped
CCN(CC)CCOc1ccc(C(=O)NC2C/C(=C\c3ccc(F)cc3)C(=O)/C(=C/c3ccc(F)cc3)C2)cc1 (centres unmarked) [JCS149, N-(3,5-Bis((E)-4-fluorobenzylidene)-4-oxocyclohexyl)-4-(2-(diethylamino)ethoxy)benzamide]	less ATR inhibition potencies	their potencies were less than JC099	
CCN(CC)C(=O)c1ccc(C2C/C(=C\c3ccc(F)c(F)c3)C(=O)/C(=C/c3ccc(F)c(F)c3)C2)c2nn(C)cc12 (centres unmarked) [JCS004, 7-(3,5-bis((E)-3,4-difluorobenzylidene)-4-oxocyclohexyl)-N,N-diethyl-2-methyl-2H-indazole-4-carboxamide]			UV induced phosphorylation of CHK1 at Ser 345 (ATR; 1 μM and 2 μM, PC3 and SUM149PT-BRCA1rev cells): inhibited; PARP1 trapped on DNA lesions (PARP1; 0.5 μM and 2 μM, PC3 and C4-2B/MR cells): trapped
CCN(CC)C(=O)c1ccc(C(=O)NC2C/C(=C\c3ccc(F)c(F)c3)C(=O)/C(=C/c3ccc(F)c(F)c3)C2)c2[nH]ncc12 (centres unmarked) [JCS006, N^7-(3,5-bis((E)-3,4-difluorobenzylidene)-4-oxocyclohexyl)-N^4,N^4-diethyl-1H-indazole-4,7-dicarboxamide]			Olaparib induced phosphorylation of Rad17 at Ser 645 and CHK1 at Ser 345 (ATR; 2 μM, PC3 cells): inhibited; PARP1 trapped on DNA lesions (PARP1; 0.5 μM, PC3 and C4-2B/MR cells): trapped
O=C1/C(=C/c2ccc(F)c(F)c2)CC(NC(=O)c2ccc(OCCN3CCCC3)cc2)C/C1=C\c1ccc(F)c(F)c1 (centres unmarked) [JCS008, N-(3,5-Bis((E)-3,4-difluorobenzylidene)-4-oxocyclohexyl)-4-(2-(pyrrolidin-1-yl)ethoxy)benzamide]		higher potency in PARP1-trapping	Olaparib induced phosphorylation of Rad17 at Ser 645 and CHK1 at Ser 345 (ATR; [1]): inhibited; PARP1 trapped on DNA lesions (PARP1; 0.5 μM and 2 μM, PC3 cells): trapped
CN1CCC[C@H]1CNc1ccc(C(=O)NC2C/C(=C\c3ccc(F)c(F)c3)C(=O)/C(=C/c3ccc(F)c(F)c3)C2)cc1 (stereo partly drawn) [JCS160, N-(3,5-Bis((E)-3,4-difluorobenzylidene)-4-oxocyclohexyl)-4-((((S)-1-methylpyrrolidin-2-yl)methyl)-amino)benzamide]	greater ATR inhibition potential	their potencies were less than JC099	
O=C1/C(=C/c2cc(Cl)cc(Cl)c2)CC(NC(=O)c2ccc(OCCN3CCCCC3)cc2)C/C1=C\c1cc(Cl)cc(Cl)c1 (centres unmarked) [JCS061, N-(3,5-Bis((E)-3,5-dichlorobenzylidene)-4-oxocyclohexyl)-4-(2-(piperidin-1-yl)ethoxy)benzamide]			Olaparib induced phosphorylation of Rad17 at Ser 645 and CHK1 at Ser 345 (ATR; 1 μM and 2 μM, PC3 cells): inhibited; PARP1 trapped on DNA lesions (PARP1; 0.3 μM, PC3 cells): trapped
CN1CCN(CC(=O)Nc2ccc(C(=O)NC3C/C(=C\c4ccc(F)c(F)c4)C(=O)/C(=C/c4ccc(F)c(F)c4)C3)cc2)CC1 (centres unmarked) [JCS050, N-(3,5-bis((E)-3,4-difluorobenzylidene)-4-oxocyclohexyl)-4-(2-(4-methylpiperazin-1-yl)acetamido)benzamide]	greater ATR inhibition potential	higher potency in PARP1-trapping	PARP1 trapped on DNA lesions (PARP1; 0.3 μM, PC3 cells): trapped
CCN(CCOC)CCOc1ccc(C(=O)NC2C/C(=C\c3ccc(F)c(F)c3)C(=O)/C(=C/c3ccc(F)c(F)c3)C2)cc1 (centres unmarked) [JCS109, N-(3,5-Bis((E)-3,4-difluorobenzylidene)-4-oxocyclohexyl)-4-(2-(ethyl(2-methoxyethyl)amino)eth-oxy)benzamide]	greater ATR inhibition potential	higher potency in PARP1-trapping	
CCN(CC)CCOc1ccc(-c2ccc(C(=O)NC3C/C(=C\c4ccc(F)c(F)c4)C(=O)/C(=C/c4ccc(F)c(F)c4)C3)cc2)cc1 (centres unmarked) [JCS095, N-(3,5-Bis((E)-3,4-difluorobenzylidene)-4-oxocyclohexyl)-4′-(2-(diethylamino)ethoxy)-[1,1′-biphenyl]-4-carboxamide]	less ATR inhibition potencies		
O=C1/C(=C/c2ccc(F)c(F)c2)CC(NC(=O)c2cnc(NCCN3CCCC3)cc2C(F)(F)F)C/C1=C\c1ccc(F)c(F)c1 (centres unmarked) [JCS094, N-(3,5-Bis((E)-3,4-difluorobenzylidene)-4-oxocyclohexyl)-6-((2-(pyrrolidin-1-yl)ethyl)amino)-4-(trifluoromethyl)nicotinamide]	their potencies were close to JC099	higher potency in PARP1-trapping	
O=C1/C(=C/c2ccc(F)c(F)c2)CC(NC(=O)c2cnc(NCCN3CCCC3)c([N+](=O)[O-])c2)C/C1=C\c1ccc(F)c(F)c1 (centres unmarked) [JCS092, N-(3,5-Bis((E)-3,4-difluorobenzylidene)-4-oxocyclohexyl)-5-nitro-6-((2-(pyrrolidin-1-yl)ethyl)ami-no)nicotinamide]	their potencies were close to JC099		
CCN(CC)CCOc1ccc(C(=O)NC2C/C(=C\c3ccc(F)c(F)c3)C(=O)/C(=C/c3ccc(F)c(F)c3)C2)cc1C(C)=O (centres unmarked) [JCS104, 3-Acetyl-N-(3,5-bis((E)-3,4-difluorobenzylidene)-4-oxocyclohexyl)-4-(2-(diethylamino)ethoxy)-benzamide]	less ATR inhibition potencies		
CCN1CCC[C@H]1CNc1ccc(C(=O)NC2C/C(=C\c3ccc(F)c(F)c3F)C(=O)/C(=C/c3ccc(F)c(F)c3F)C2)cc1 (stereo partly drawn) [JCS157, 4-((((S)-1-Ethylpyrrolidin-2-yl)methyl)amino)-N-(4-oxo-3,5-bis((E)-2,3,4-trifluorobenzylidene)-cyclohexyl)benzamide]	less ATR inhibition potencies		
CCN(CC)CCOc1ccc2cc(C(=O)NC3C/C(=C\c4ccc(F)c(F)c4)C(=O)/C(=C/c4ccc(F)c(F)c4)C3)ccc2c1 (centres unmarked) [JCS098, N-(3,5-Bis((E)-3,4-difluorobenzylidene)-4-oxocyclohexyl)-6-(2-(diethylamino)ethoxy)-2-naphtha-mide]	less ATR inhibition potencies		
O=C(CCN1CCCC1)NC1C/C(=C\c2ccc(F)c(F)c2)C(=O)/C(=C/c2ccc(F)c(F)c2)C1 (centres unmarked) [JCS007, N-(3,5-bis((E)-3,4-difluorobenzylidene)-4-oxocyclohexyl)-3-(pyrrolidin-1-yl)propanamide]			Olaparib induced phosphorylation of Rad17 at Ser 645 and CHK1 at Ser 345 (ATR; [1]): inhibited
O=C1/C(=C/c2ccc(F)c(F)c2)CC(NC(=O)c2cnc(NCCN3CCCC3)cn2)C/C1=C\c1ccc(F)c(F)c1 (centres unmarked) [JCS093, N-(3,5-Bis((E)-3,4-difluorobenzylidene)-4-oxocyclohexyl)-5-((2-(pyrrolidin-1-yl)ethyl)amino)pyr-azine-2-carboxamide]	less ATR inhibition potencies		
O=C1/C(=C/c2ccc(F)c(F)c2)CC(NC(=O)c2ccc3cc(OCCN4CCCCC4)ccc3c2)C/C1=C\c1ccc(F)c(F)c1 (centres unmarked) [JCS097, N-(3,5-Bis((E)-3,4-difluorobenzylidene)-4-oxocyclohexyl)-6-(2-(piperidin-1-yl)ethoxy)-2-naphth-amide]	less ATR inhibition potencies		
N#Cc1cc(NCCN2CCCC2)ccc1C(=O)NC1C/C(=C\c2ccc(F)c(F)c2)C(=O)/C(=C/c2ccc(F)c(F)c2)C1 (centres unmarked) [JCS0091]	their potencies were close to JC099		
CCN(CC)CCOc1ccc(C(=O)NC2C/C(=C\c3ccc(F)c(F)c3)C(=O)/C(=C/c3ccc(F)c(F)c3)C2)cn1 (centres unmarked) [JCS115, N-(3,5-Bis((E)-3,4-difluorobenzylidene)-4-oxocyclohexyl)-6-(2-(diethylamino)ethoxy)nicotinamide]	less ATR inhibition potencies		
